The text below walks through data of patent US10167313B2, “Selective caspase inhibitors and uses thereof” (Genesis Technologies Limited, priority 2008, dated 2019).

In one assay the target is caspase-9 (Homo sapiens (Human), UniProt P55211). Briefly: Caspase-9 Inhibitor Drug Screening Kit, fluorometric enzymatic assay.
The subject of a further assay is Hela cells. Put plainly: Inhibition of proteolytic cleavage of PARP in staurosporine-treated live Hela cells. As to conditions: for effectivity in inhibiting PARP cleavage (in words): relative to DEVD-fmk. The class given is cell-based. On the procedure:
To test the efficacy of caspase-3 inhibitors at the cellular level, the ability of selected compounds to inhibit the proteolytic cleavage of PARP (poly ADP-ribose polymerase) was evaluated in live Hela cells.
Briefly, in this assay Hela cells are seeded in 96 well plates and incubated for 4 hours with staurosporine, a well characterized inducer of apoptosis, alone or together with different concentrations of compound (50, 25, 10 and 3 uM). After formaldehyde-based fixation, the cells are stained with a fluorescein-labeled anti-cleaved PARP antibody (Cell signaling, Cat#: 9547) and counterstained with Hoechst33342 (Invitrogen, Cat#: H3570) to mark all nuclei. Fluorescence images are taken on a Cellomics™ microscope system (Thermo Scientific, Pittsburgh, USA) with the Hoechst stain in the blue channel and the cleaved PARP antibody stain in the green channel. The percentage of cleaved PARP positive cells is determined by calculating the ratio between nuclei with a cleaved PARP antibody staining above a certain threshold and all (Hoechst positive) nuclei. The efficacy of caspase-3 inhibition is determined by calculating the ratio between cleaved PARP positive cells after staurosporine incubation together with compounds and staurosporine incubation without compounds.

The target of a further assay is caspase-7 (Homo sapiens (Human), UniProt P55210). Briefly: Caspase-7 Inhibitor Drug Screening Kit, fluorometric enzymatic assay.
Another assay deals with caspase-5 (Homo sapiens (Human), UniProt P51878). Briefly: Caspase-5 Inhibitor Drug Screening Kit, fluorometric enzymatic assay. The settings on record: read-out: Caspase enzymatic activity, IC50 (uM) Caspase 5; 30-minute incubation at 37° C., AFC liberation.
In another assay the target is caspase-3 (Homo sapiens (Human), UniProt P42574). Briefly: Caspase-3 Inhibitor Drug Screening Kit, fluorometric enzymatic assay. Type of assay: biochemical. As to conditions: for IC50: 30-minute incubation at 37° C., AFC liberation.
Another assay addresses Caspase 3/7 (Glo3/7). Put plainly: Glo3/7 assay.
For the next assay, the target named is caspase-1 (Homo sapiens (Human), UniProt P29466). Briefly: Caspase-1 Inhibitor Drug Screening Kit, fluorometric enzymatic assay. As to conditions: read-out: Caspase enzymatic activity, IC50 (uM) Caspase 1; 30-minute incubation at 37° C., AFC liberation.
[1] abbreviates: Homo sapiens, 50 uM, relative to DEVDFMK, read-out: % of inhibition with compound relative to DEVDFMK.
The mark [2] stands for this setting: Homo sapiens, read-out: % inhibition of PARP cleavage at 50 uM compound, staurosporine 4 hours, 50 uM compound.
The mark [3] stands for this setting: read-out: Caspase enzymatic activity, IC50 (uM) Caspase 9, 30-minute incubation at 37° C., AFC liberation.
Where [4] appears, read: read-out: Caspase enzymatic activity, IC50 (uM) Caspase 7, 30-minute incubation at 37° C., AFC liberation.

Molecules are shown by their SMILES. Where a name gives a salt, the structure may show the parent alone. Read-outs that look alike come from different tables or passages of the source. Non-standard residues stand in square brackets, D forms with d. Residues, ends and D or L forms follow the SMILES beside them. *: point of attachment. Phg = N[C@H](C(=O)O)c1ccccc1; Cbz = O=C(OCc1ccccc1)*; OtBu = CC(C)(C)O* Some results are limits rather than exact numbers.

caspase-1, sequence (P29466 120-297): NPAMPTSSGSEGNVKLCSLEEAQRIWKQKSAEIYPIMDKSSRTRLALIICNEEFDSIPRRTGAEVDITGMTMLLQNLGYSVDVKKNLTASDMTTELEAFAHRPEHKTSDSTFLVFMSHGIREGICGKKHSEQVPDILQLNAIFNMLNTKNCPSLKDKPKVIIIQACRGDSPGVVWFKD
caspase-1, sequence (P29466 317-404): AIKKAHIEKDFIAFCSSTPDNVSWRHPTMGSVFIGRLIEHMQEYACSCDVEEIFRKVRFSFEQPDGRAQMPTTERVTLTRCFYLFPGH
caspase-7, sequence (P55210 24-198): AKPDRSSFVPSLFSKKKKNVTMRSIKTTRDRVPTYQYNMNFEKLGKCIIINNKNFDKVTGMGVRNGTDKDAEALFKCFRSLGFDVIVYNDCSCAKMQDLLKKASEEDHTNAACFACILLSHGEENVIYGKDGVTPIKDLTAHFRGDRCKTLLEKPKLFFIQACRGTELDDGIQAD
caspase-7, sequence (P55210 207-303): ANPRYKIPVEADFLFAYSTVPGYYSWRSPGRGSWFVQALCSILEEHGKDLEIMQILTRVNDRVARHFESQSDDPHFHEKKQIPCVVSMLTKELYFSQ
caspase-9, sequence (P55211 1-315): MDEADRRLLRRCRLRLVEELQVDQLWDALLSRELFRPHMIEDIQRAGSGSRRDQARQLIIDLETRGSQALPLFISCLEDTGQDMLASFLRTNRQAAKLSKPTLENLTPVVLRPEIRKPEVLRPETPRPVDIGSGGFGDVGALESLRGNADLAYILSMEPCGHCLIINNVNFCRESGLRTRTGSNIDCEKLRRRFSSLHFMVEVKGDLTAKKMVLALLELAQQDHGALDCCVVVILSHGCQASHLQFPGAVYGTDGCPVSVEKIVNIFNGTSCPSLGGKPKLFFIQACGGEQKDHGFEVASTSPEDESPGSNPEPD
caspase-9, sequence (P55211 331-416): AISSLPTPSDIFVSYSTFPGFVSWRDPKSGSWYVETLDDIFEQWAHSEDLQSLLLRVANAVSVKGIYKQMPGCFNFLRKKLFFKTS
caspase-3, sequence (P42574 29-175): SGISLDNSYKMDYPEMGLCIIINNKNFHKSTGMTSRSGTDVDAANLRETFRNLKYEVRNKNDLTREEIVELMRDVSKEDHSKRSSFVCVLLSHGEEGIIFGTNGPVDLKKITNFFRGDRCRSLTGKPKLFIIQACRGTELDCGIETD
caspase-3, sequence (P42574 176-277): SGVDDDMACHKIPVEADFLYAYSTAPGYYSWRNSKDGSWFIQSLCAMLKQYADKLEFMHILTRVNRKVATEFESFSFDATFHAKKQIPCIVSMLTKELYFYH
caspase-5, sequence (P51878 137-327): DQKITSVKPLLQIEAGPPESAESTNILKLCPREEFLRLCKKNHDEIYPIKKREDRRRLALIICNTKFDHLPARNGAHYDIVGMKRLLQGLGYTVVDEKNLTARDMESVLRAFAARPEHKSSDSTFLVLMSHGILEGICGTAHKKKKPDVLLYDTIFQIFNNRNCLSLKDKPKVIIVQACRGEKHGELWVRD
caspase-5, sequence (P51878 347-434): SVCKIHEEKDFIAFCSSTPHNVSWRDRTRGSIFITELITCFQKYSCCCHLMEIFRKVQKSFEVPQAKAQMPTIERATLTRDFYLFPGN
Protocol for caspase-1: (§1) The level of inhibition of caspase-1, -3, -5, -7, -9 activity was determined by comparison of the relative fluorescence intensity in samples with or without the compound.
Protocol for caspase-3: as §1
Protocol for caspase-5: as §1
Protocol for caspase-7: as §1
Protocol for caspase-9: as §1

As to `CC(C)[C@H](NC(=O)[C@H](CCC(=O)O)NC(=O)[C@H](CC(=O)O)NC(=O)OCc1ccccc1)C(=O)N[C@H](/C=C/S(C)(=O)=O)CC(=O)O` [Compound 59, Z-Asp-Glu-Val-Aspmethyl vinyl sulfone], the IC50 (usually the midpoint of a concentration-inhibition curve) on caspase-9 is 0.509 µM; against caspase-7 it was 0.042 µM; on caspase-5, over 3.33 µM. The inhibition – broadly, the relative decrease from the control value, in per cent – at 50 µM came out at 70% in the assay with Hela cells (setting [1]) and 45% in the assay with Hela cells (setting [2]). For the same compound, the “effectivity in inhibiting PARP cleavage (in words)” value with Hela cells is “showing effectivity”.

Regarding `CC(C)(C)OC(=O)C[C@H](N)/C=C/S(C)(=O)=O.Cc1ccc(S(=O)(=O)O)cc1` (stereo in doubt) [Compound 33, Asp(β-tert-butyl)methyl vinyl sulfone tosyl salt], on caspase-3, the “activity against caspase-3 (in words)” value is on record as “devoid of any activity” and the IC50 was over 10 µM.

In the case of `CC(C)[C@H](NC(=O)[C@H](Cc1ccc2ccccc2n1)NC(=O)[C@H](CC(=O)O)NC(=O)OCc1ccccc1)C(=O)N[C@H](/C=C/S(=O)(=O)Oc1ccccc1)CC(=O)O` [Compound 65, Z-Asp-Ala(2′-quinolyl)-Val-Aspphenoxy vinyl sulfone], the inhibition at 50 µM amounted to 40% in the assay with Hela cells (setting [1]) and 30% in the assay with Hela cells (setting [2]). For the same compound, the IC50 is 0.2 µM at Caspase 3/7 (Glo3/7) and over 3.33 µM at caspase-5.

In the case of `COC(=O)C[C@@H](/C=C/S(C)(=O)=O)NC(=O)[C@@H](NC(=O)[C@@H](NC(=O)[C@H](CC(=O)OC)NC(=O)OCc1ccccc1)C1Cc2ccccc2C1)C(C)C` [Compound 51, Z-Asp(β-methyl)-Indanylglycine-Val- Asp(β-methyl)methyl vinyl sulfone], the IC50 at caspase-9 (setting [3]), at caspase-1, on caspase-7 (setting [4]) and on caspase-5 was over 3 µM throughout. The inhibition at 50 µM with Hela cells (setting [1]) was 80%; in the assay on Hela cells (setting [2]), 65%.

Consider `CC(C)[C@H](NC(=O)[C@@H](NC(=O)[C@H](CC(=O)OC(C)(C)C)NC(=O)OCc1ccccc1)c1ccccc1)C(=O)O` [Compound 16, Z-Asp(β-tert-Butyl)-Phg-Val-OH.] (Cbz-Asp(OtBu)-[Phg]-Val-OH), for which, at caspase-3, the “activity against caspase-3 (in words)” value is on record as “devoid of any activity” and the concentration for half-maximal inhibition (IC50) was over 2 µM.

Take `CC(C)[C@H](NC(=O)[C@H](Cc1ccc2ccccc2n1)NC(=O)[C@H](CC(=O)OC(C)(C)C)NC(=O)OCc1ccccc1)C(=O)N[C@H](/C=C/S(=O)(=O)N1CCOCC1)CC(=O)OC(C)(C)C` [Compound 66, Z-Asp(β-tert-Butyl)-Ala(2′-quinolyl)-Val-Asp(β-tert-Butyl)morpholine vinyl sulfone]: the inhibition at 50 µM in the assay on Hela cells (setting [2]) amounted to 25%.

As to `CC(C)[C@H](NC(=O)[C@H](Cc1ccc2ccccc2n1)NC(=O)[C@H](CC(=O)O)NC(=O)OCc1ccccc1)C(=O)N[C@H](/C=C(\Cl)S(C)(=O)=O)CC(=O)O` [Compound 48, Z-Asp-Ala(2′-quinolyl)-Val-Asp- αchlorovinyl methylsulfone], the IC50 on caspase-1 is over 3.33 µM; against Caspase 3/7 (Glo3/7), 0.1 µM; at caspase-5 it was over 3.33 µM. Moreover, the inhibition at 50 µM was found to be 65% in the assay on Hela cells (setting [1]) and 45% with Hela cells (setting [2]). The “effectivity in inhibiting PARP cleavage (in words)” value with Hela cells is “showing effectivity”.

On to `CC(C)[C@H](NC(=O)[C@@H](Cc1ccc2ccccc2n1)NC(=O)[C@H](CC(=O)O)NC(=O)OCc1ccccc1)C(=O)N[C@H](/C=C/S(=O)(=O)c1ccccc1)CC(=O)O` (stereo in doubt) [Compound 70, Z-Asp-(D,L Ala(2′-quinolyl))-Val- Aspphenyl vinylsulfone], for which the IC50 on caspase-9 (setting [3]) is over 10 µM; on caspase-3, 0.3 µM; on caspase-7 (setting [4]) it was over 10 µM; on caspase-5 it was over 10 µM.

In the case of `CC(C)[C@H](NC(=O)[C@H](Cc1c[nH]c2ccccc12)NC(=O)[C@H](CC(=O)O)NC(=O)OCc1ccccc1)C(=O)N[C@H](/C=C/S(C)(=O)=O)CC(=O)O` [Compound 88, Z-Asp-Trp-Val-Aspmethyl vinyl sulfone], the IC50 on caspase-9 (setting [3]) and at caspase-5 was over 3.33 µM throughout. For the same compound, the inhibition at 50 µM turned out to be 50% in the assay on Hela cells (setting [1]) and 45% in the assay on Hela cells (setting [2]).

On to `CC(C)(C)OC(=O)C[C@@H](/C=C/S(=O)(=O)c1ccccc1)NC(=O)OC(C)(C)C` [Compound 36, Boc-Asp-vinyl phenyl sulfone], for which the IC50 on caspase-3 was over 2 µM.

For `CC(C)[C@H](NC(=O)[C@@H](NC(=O)[C@H](CC(=O)O)NC(=O)OCc1ccccc1)C1Cc2ccccc2C1)C(=O)N[C@H](/C=C/S(=O)(=O)C(C)C)CC(=O)O` [Compound 68, Z-Asp-Indanylglycine-Val-Aspisopropyl vinyl sulfone], the IC50 at caspase-9 (setting [3]), on caspase-1 and at caspase-5 was over 3.33 µM each time. For the same compound, the inhibition at 50 µM turned out to be 50% in the assay with Hela cells (setting [1]) and 30% in the assay with Hela cells (setting [2]).

Consider `CC(C)[C@H](NC(=O)[C@H](CCC(=O)O)NC(=O)[C@H](Cc1ccc(O)cc1)NC(=O)OCc1ccccc1)C(=O)N[C@H](/C=C/S(C)(=O)=O)CC(=O)O` [Compound 82, Z-Tyr-Glu-Val-Aspmethyl vinyl sulfone], for which the IC50 at caspase-7 (setting [4]) is over 5 µM; on caspase-5, over 3 µM.

In the case of `COC(=O)CC[C@H](NC(=O)[C@H](CC(=O)OC)NC(=O)OCc1ccccc1)C(=O)N[C@H](C(=O)N[C@@H](CC(=O)OC)C(=O)CF)C(C)C` [DEVD-fmk, reference compound], the inhibition at 50 µM in the assay with Hela cells (setting [2]) came out at 85%. In the assay with Hela cells (Homo sapiens, staurosporine), this compound gave an IC50 of 20 µM.

Take `CC(C)[C@H](NC(=O)[C@H](Cc1ccccn1)NC(=O)[C@H](CC(=O)O)NC(=O)OCc1ccccc1)C(=O)N[C@H](/C=C/S(=O)(=O)c1ccccc1)CC(=O)O` [Compound 85, Z-Asp-Ala(2′-pyridyl)-Val-Aspphenyl vinylsulfone]: the IC50 at caspase-9 (setting [3]), at caspase-1 and on caspase-5 was over 3.33 µM each time. Also, the inhibition at 50 µM in the assay with Hela cells (setting [2]) came to 40%.

As to `CS(=O)(=O)/C=C/[C@@H](N)CC(=O)O.Cc1ccc(S(=O)(=O)O)cc1` [Compound 93, Aspmethyl vinyl sulfone tosyl salt], at caspase-3, the “activity against caspase-3 (in words)” value is reported as “devoid of any activity” and the IC50 is over 10 µM.

`CC(C)(C)OC(=O)C[C@H](N)/C=C/S(=O)(=O)c1ccccc1` [Compound 37, Asp Vinyl phenyl sulfone tosyl salt]: the IC50 on caspase-3 was over 2 µM.

With `Cc1ccc(S(=O)(=O)N[C@@H](Cc2ccc3ccccc3n2)C(=O)N[C@H](C(=O)N[C@H](/C=C(\Cl)S(C)(=O)=O)CC(=O)O)C(C)C)cc1` [Compound 50, Ts-Ala(2′quinolyl)-Val-Asp- αchlorovinyl methylsulfone], the IC50 on caspase-1 is over 3.33 µM. Moreover, on caspase-3, the “activity against caspase-3 (in words)” value was “The same result was observed” and the IC50 is over 3.33 µM.

On to `CC(C)[C@H](NC(=O)[C@@H](Cc1ccc2ccccc2n1)NC(=O)[C@H](CC(=O)O)NC(=O)OCc1ccccc1)C(=O)N[C@H](/C=C/S(C)(=O)=O)CC(=O)O` (stereo in doubt) [Compound 71, Z-Asp-(D,L Ala(2′-quinolyl))-Val- Aspmethyl vinylsulfone], for which the IC50 on caspase-9 (setting [3]) is over 10 µM; at caspase-1, over 10 µM; on caspase-7 (setting [4]), 8.9 µM; on caspase-5, over 10 µM.

Take `CC(C)[C@H](NC(=O)OCc1ccccc1)C(=O)N[C@H](/C=C/S(C)(=O)=O)CC(=O)O` [Compound 61, Z-Val-Aspmethyl vinyl sulfone]: the IC50 at caspase-9 (setting [3]), on caspase-1, at caspase-3, on caspase-7 (setting [4]) and on caspase-5 was over 3.33 µM in each case. In addition, the inhibition at 50 µM with Hela cells (setting [1]) and with Hela cells (setting [2]) was 5% in each case. For the same compound, at caspase-3, the “activity against caspase-3 (in words)” value is recorded as “abolished completely the activity”.

As to `CC(C)[C@H](NC(=O)[C@H](Cc1ccc(O)cc1)NC(=O)OCc1ccccc1)C(=O)N[C@@H](C)C(=O)N[C@H](/C=C/S(=O)(=O)c1ccccc1)CC(=O)O` [Compound 96, Z-Tyr-Val-Ala-Asp phenyl vinyl sulfone], the IC50 at caspase-9 (setting [3]) is over 10 µM; at caspase-3 it was over 10 µM; at caspase-7 (setting [4]), over 10 µM; at caspase-5, over 3.33 µM.
